Read-outs that look alike come from different tables or passages of the source.
Tests used:
Assay type in all cases: cell-based, human
[1] = tested on: Melanoma cancer cell lines; assay: NCI anticancer screen, SRB assay, panel summary; conditions: Melanoma panel
In short: (§1)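 Compounds were tested across fifty three human cancer cell lines from nine tumour types. Each line got a dose-response curve of at least five concentrations at 10-fold dilutions, with continuous drug exposure and sulforhodamine B protein staining to estimate viability or growth.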

Breast cancer cell lines = assay: NCI anticancer screen, SRB assay, panel summary
In short: as §1

[2] = tested on: Leukemia cancer cell lines; assay: NCI anticancer screen, SRB assay, panel summary; conditions: Leukemia panel
In short: as §1

Colon cancer cell lines = assay: NCI anticancer screen, SRB assay, panel summary; conditions: Colon panel
In short: as §1

Renal cancer cell lines = assay: NCI anticancer screen, SRB assay, panel summary
In short: as §1

CNS cancer cell lines = assay: NCI anticancer screen, SRB assay, panel summary; conditions: CNS panel
In short: as §1

[3] = tested on: Non-small cell lung cancer cell lines; assay: NCI anticancer screen, SRB assay, panel summary
In short: as §1

[4] = tested on: Prostate cancer cell lines; assay: NCI anticancer screen, SRB assay, panel summary
In short: as §1

[5] = tested on: Ovarian cancer cell lines; assay: NCI anticancer screen, SRB assay, panel summary; conditions: Ovarian panel
In short: as §1

SW-620 (colon) = assay: NCI anticancer screen, SRB assay, 48 h
In short: as §1

HCC-2998 (colon) = assay: NCI anticancer screen, SRB assay, 48 h
In short: as §1

SF-268 (CNS) = assay: NCI anticancer screen, SRB assay, 48 h
In short: as §1

786-0 (renal) = assay: NCI anticancer screen, SRB assay, 48 h
In short: as §1

U251 (CNS) = assay: NCI anticancer screen, SRB assay, 48 h
In short: as §1

LOX IMVI (melanoma) = assay: NCI anticancer screen, SRB assay, 48 h
In short: as §1

SF-295 (CNS) = assay: NCI anticancer screen, SRB assay, 48 h
In short: as §1

A498 (renal) = assay: NCI anticancer screen, SRB assay, 48 h
In short: as §1

[6] = tested on: HOP-92 (non-small cell lung); assay: NCI anticancer screen, SRB assay, 48 h
In short: as §1

OVCAR-5 (ovarian) = assay: NCI anticancer screen, SRB assay, 48 h
In short: as §1

TK-10 (renal) = assay: NCI anticancer screen, SRB assay, 48 h
In short: as §1

PC-3 (prostate) = assay: NCI anticancer screen, SRB assay, 48 h; conditions: for GI50: read-out: GI50
In short: as §1

MDA-MB-231/ATCC (breast) = assay: NCI anticancer screen, SRB assay, 48 h
In short: as §1

[7] = tested on: NCI-H460 (non-small cell lung); assay: NCI anticancer screen, SRB assay, 48 h
In short: as §1

HCT-15 (colon) = assay: NCI anticancer screen, SRB assay, 48 h
In short: as §1

[8] = tested on: K-562 (leukemia cell line); assay: NCI anticancer screen, SRB assay, 48 h
In short: as §1

MCF7 (breast) = assay: NCI anticancer screen, SRB assay, 48 h
In short: as §1

HS 578T (breast) = assay: NCI anticancer screen, SRB assay, 48 h
In short: as §1

MDA-MB-435 (melanoma) = assay: NCI anticancer screen, SRB assay, 48 h
In short: as §1

SN12C (renal) = assay: NCI anticancer screen, SRB assay, 48 h
In short: as §1

SF-539 (CNS) = assay: NCI anticancer screen, SRB assay, 48 h
In short: as §1

SK-MEL-5 (melanoma) = assay: NCI anticancer screen, SRB assay, 48 h
In short: as §1

BT-549 (breast) = assay: NCI anticancer screen, SRB assay, 48 h
In short: as §1

[9] = log of concentration in mol/L causing 50% inhibition of net cell growth
[10] = log of concentration leading to 50% net cell death
[11] = log of concentration resulting in total inhibition of net cell growth
[12] = 48 h exposure, SRB, read-out: GI50

COc1ccc(-c2cn(-c3cccc(C(=O)/C=C/c4cc(OC)c(OC)c(OC)c4)c3)c(=O)[nH]2)cc1 [5b, 4-(4-methoxyphenyl)-1-3-[(E)-3-(3,4,5-trimethoxyphenyl)-2-propenoyl]phenyl-2,3-dihydro-1H-2-imidazolone]
mean graph midpoint (MG_MID) of Log10 GI50 [1, 9]: 5.72 | mean graph midpoint (MG_MID) of Log10 LC50 [1, 10]: 4.58 | mean graph midpoint (MG_MID) of Log10 TGI [1, 11]: 5.25 | mean graph midpoint (MG_MID) of Log10 LC50 (Breast cancer cell lines): 4.91 | mean graph midpoint (MG_MID) of Log10 GI50 (Breast cancer cell lines; Breast panel, log of concentration in mol/L causing 50% inhibition of net cell growth): 5.61 | mean graph midpoint (MG_MID) of Log10 TGI (Breast cancer cell lines; Breast panel, log of concentration resulting in total inhibition of net cell growth): 4.86 | mean graph midpoint (MG_MID) of Log10 GI50 [2, 9]: 5.96 | mean graph midpoint (MG_MID) of Log10 TGI [2, 11]: 4.00 | mean graph midpoint (MG_MID) of Log10 GI50 (Colon cancer cell lines; [9]): 5.95 | mean graph midpoint (MG_MID) of Log10 LC50 (Colon cancer cell lines; [10]): 5.13 | mean graph midpoint (MG_MID) of Log10 TGI (Colon cancer cell lines; [11]): 5.58 | mean graph midpoint (MG_MID) of Log10 LC50 (Renal cancer cell lines): 4.46 | mean graph midpoint (MG_MID) of Log10 GI50 (Renal cancer cell lines; Renal panel, log of concentration in mol/L causing 50% inhibition of net cell growth): 5.60 | mean graph midpoint (MG_MID) of Log10 TGI (Renal cancer cell lines; Renal panel, log of concentration resulting in total inhibition of net cell growth): 5.12 | mean graph midpoint (MG_MID) of Log10 GI50 (CNS cancer cell lines; [9]): 5.54 | mean graph midpoint (MG_MID) of Log10 LC50 (CNS cancer cell lines; [10]): 4.55 | mean graph midpoint (MG_MID) of Log10 TGI (CNS cancer cell lines; [11]): 5.01 | mean graph midpoint (MG_MID) of Log10 LC50 [3]: 4.82 | mean graph midpoint (MG_MID) of Log10 GI50 ([3]; Non-small cell lung panel, log of concentration in mol/L causing 50% inhibition of net cell growth): 5.30 | mean graph midpoint (MG_MID) of Log10 TGI ([3]; Non-small cell lung panel, log of concentration resulting in total inhibition of net cell growth): 4.66 | mean graph midpoint (MG_MID) of Log10 GI50 [4, 9]: 5.21 | mean graph midpoint (MG_MID) of Log10 TGI [4, 11]: 4.41 | mean graph midpoint (MG_MID) of Log10 GI50 [5, 9]: 5.58 | mean graph midpoint (MG_MID) of Log10 LC50 [5, 10]: 4.41 | mean graph midpoint (MG_MID) of Log10 TGI [5, 11]: 4.83 | pGI50 (-log of molar concentration causing 50% inhibition of net cell growth) (SW-620 (colon)): 6.35 | GI50 (SW-620 (colon); [12]): 450 nM | pGI50 (-log of molar concentration causing 50% inhibition of net cell growth) (HCC-2998 (colon)): 5.79 | GI50 (HCC-2998 (colon); [12]): 1640 nM | pGI50 (-log of molar concentration causing 50% inhibition of net cell growth) (SF-268 (CNS)): 5.49 | GI50 (SF-268 (CNS); [12]): 3210 nM | pGI50 (-log of molar concentration causing 50% inhibition of net cell growth) (786-0 (renal)): 5.79 | GI50 (786-0 (renal); [12]): 1610 nM | pGI50 (-log of molar concentration causing 50% inhibition of net cell growth) (U251 (CNS)): 6.06 | GI50 (U251 (CNS); [12]): 880 nM | pGI50 (-log of molar concentration causing 50% inhibition of net cell growth) (LOX IMVI (melanoma)): 6.14 | GI50 (LOX IMVI (melanoma); [12]): 720 nM | pGI50 (-log of molar concentration causing 50% inhibition of net cell growth) (SF-295 (CNS)): 5.31 | GI50 (SF-295 (CNS); [12]): 4950 nM | pGI50 (-log of molar concentration causing 50% inhibition of net cell growth) (A498 (renal)): 5.38 | GI50 (A498 (renal); [12]): 4210 nM | pGI50 (-log of molar concentration causing 50% inhibition of net cell growth) [6]: 4.83 | GI50 [6, 12]: 14900 nM | pGI50 (-log of molar concentration causing 50% inhibition of net cell growth) (OVCAR-5 (ovarian)): 5.58 | GI50 (OVCAR-5 (ovarian); [12]): 2640 nM | pGI50 (-log of molar concentration causing 50% inhibition of net cell growth) (TK-10 (renal)): 5.52 | GI50 (TK-10 (renal); [12]): 3040 nM | pGI50 (-log of molar concentration causing 50% inhibition of net cell growth) (PC-3 (prostate); PC-3): 5.21 | GI50 (PC-3 (prostate); PC-3, 48 h exposure, SRB): 6220 nM | GI50 (PC-3 (prostate); one prostate cancer cell line (PC-3), exposure at least 48 hrs): 6220 nM | pGI50 (-log of molar concentration causing 50% inhibition of net cell growth) (MDA-MB-231/ATCC (breast)): 5.26 | GI50 (MDA-MB-231/ATCC (breast); [12]): 5480 nM | pGI50 (-log of molar concentration causing 50% inhibition of net cell growth) [7]: 5.81 | GI50 [7, 12]: 1560 nM | pGI50 (-log of molar concentration causing 50% inhibition of net cell growth) (HCT-15 (colon)): 5.86 | GI50 (HCT-15 (colon); [12]): 1380 nM | pGI50 (-log of molar concentration causing 50% inhibition of net cell growth) [8]: 5.90 | GI50 [8, 12]: 1270 nM | pGI50 (-log of molar concentration causing 50% inhibition of net cell growth) (MCF7 (breast)): 6.36 | GI50 (MCF7 (breast); [12]): 440 nM | pGI50 (-log of molar concentration causing 50% inhibition of net cell growth) (HS 578T (breast)): 5.47 | GI50 (HS 578T (breast); [12]): 3390 nM | pGI50 (-log of molar concentration causing 50% inhibition of net cell growth) (MDA-MB-435 (melanoma)): 5.73 | GI50 (MDA-MB-435 (melanoma); [12]): 1860 nM | pGI50 (-log of molar concentration causing 50% inhibition of net cell growth) (SN12C (renal); SN 12C): 5.46 | GI50 (SN12C (renal); SN12C, 48 h exposure, SRB, read-out: GI50): 3500 nM | pGI50 (-log of molar concentration causing 50% inhibition of net cell growth) (SF-539 (CNS)): 5.70 | GI50 (SF-539 (CNS); [12]): 2000 nM | pGI50 (-log of molar concentration causing 50% inhibition of net cell growth) (SK-MEL-5 (melanoma)): 5.69 | GI50 (SK-MEL-5 (melanoma); [12]): 2030 nM | pGI50 (-log of molar concentration causing 50% inhibition of net cell growth) (BT-549 (breast)): 5.59 | GI50 (BT-549 (breast); [12]): 2590 nM

Reference: patent US8889874B2, “Imidazolone-chalcone derivatives as potential anticancer agent and process for the preparation thereof” (Council of Scientific and Industrial Research, priority 2010, dated 2014)
